Source: patent publication US5492919A, “5-HT4 receptor antagonists” (SmithKline Beecham p.l.c., priority 1991, dated 1996)

Tests used:
5-HT4 receptor [1] = target: T1, 5-HT4 receptor (Sus scrofa, UniProt Q6Q253); test: 5-HT4 receptor antagonist activity: piglet atria, piglet spontaneous beating screen; type: cell-based
T1 construct: functional antagonism (pKB)
Procedure: (§1) 5-HT4 RECEPTOR ANTAGONIST ACTIVITY
Compounds were tested in the piglet spontaneous beating screen (Naunyn-Schmiedeberg's Arch. Pharmacol 342, 619-622). pKB (-log10 KB) value for the compound of Example 21 of EP-A-328200 was 7.6.

5-HT4 receptor [2] = target: T2, 5-HT4 receptor (Cavia porcellus, UniProt O70528); test: 5-HT4 receptor antagonist activity: guinea pig colon (longitudinal muscle-myenteric plexus preparations), reduction of 5-HT-evoked contractions; type: cell-based; settings: for activity in guinea pig colon, in words: relative to compounds generally active at pIC50 = 6 or more
T2 construct: Longitudinal muscle-myenteric plexus preparations, approximately 3 cm long, are obtained from the distal colon region; from tissue; host or cells: guinea pig distal colon, longitudinal muscle-myenteric plexus preparation
T2 sequence (O70528 whole entry): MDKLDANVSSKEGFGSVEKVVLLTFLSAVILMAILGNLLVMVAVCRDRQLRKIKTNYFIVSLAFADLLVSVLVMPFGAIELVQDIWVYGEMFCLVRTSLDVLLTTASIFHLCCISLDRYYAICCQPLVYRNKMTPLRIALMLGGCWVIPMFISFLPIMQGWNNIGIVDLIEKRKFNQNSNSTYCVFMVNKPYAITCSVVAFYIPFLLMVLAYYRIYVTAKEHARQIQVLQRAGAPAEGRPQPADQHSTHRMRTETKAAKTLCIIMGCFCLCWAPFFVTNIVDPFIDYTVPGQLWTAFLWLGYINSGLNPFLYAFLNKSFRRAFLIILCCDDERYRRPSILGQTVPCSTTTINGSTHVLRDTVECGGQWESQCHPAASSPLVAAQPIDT
Procedure: as §1
Male guinea-pigs, weighing 250-400 g are used. Longitudinal muscle-myenteric plexus preparations, approximately 3 cm long, are obtained from the distal colon region. These are suspended under a 0.5 g load in isolated tissue baths containing Krebs solution bubbled with 5% CO2 in O2 and maintained at 37° C. In all experiments, the Krebs solution also contains methiothepin 10^-7 M and granisetron 10^-6 M to block effects at 5-HT1, 5-HT2 and 5-HT3 receptors.
After construction of a simple concentration-response curve with 5-HT, using 30s contact times and a 15rain dosing cycle, a concentration of 5-HT is selected so as to obtain a contraction of the muscle approximately 40-70% maximum(10^-9 M approx). The tissue is then alternately dosed every 15 min with this concentration of 5-HT and then with an approximately equi-effective concentration of the nicotine receptor stimulant, dimethylphenylpiperazinium (DMPP). After obtaining consistent responses to both 5-HT and DMPP, increasing concentrations of a putative 5-HT4 receptor antagonist are then added to the bathing solution. The effects of this compound are then determined as a percentage reduction of the contractions evoked by 5-HT or by DMPP. […] A compound which reduces the response to 5-HT but not to DMPP is believed to act as a 5-HT4 receptor antagonist.

T1 sequence (Q6Q253 1-402): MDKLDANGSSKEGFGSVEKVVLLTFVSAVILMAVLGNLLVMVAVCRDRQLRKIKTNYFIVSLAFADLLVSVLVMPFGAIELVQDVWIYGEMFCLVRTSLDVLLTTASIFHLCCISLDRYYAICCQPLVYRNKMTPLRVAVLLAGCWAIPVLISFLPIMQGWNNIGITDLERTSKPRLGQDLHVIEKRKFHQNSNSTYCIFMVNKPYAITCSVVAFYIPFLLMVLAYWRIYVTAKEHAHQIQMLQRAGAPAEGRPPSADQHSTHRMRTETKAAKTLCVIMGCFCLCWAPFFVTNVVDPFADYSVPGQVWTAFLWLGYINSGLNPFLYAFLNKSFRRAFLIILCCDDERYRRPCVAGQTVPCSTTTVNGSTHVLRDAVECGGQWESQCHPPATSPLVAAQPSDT

With `Cn1cc(-c2noc(CCN3CCCCC3)n2)c2ccccc21` [Example 21 of EP-A-328200, 1-methyl-3-[5-(2-(1-piperidyl)ethyl)-1,2,4-oxadiazol-3-yl]indole] the “pKB (-log10 KB)” value (5-HT4 receptor [1]) was 7.6 and the IC50 (5-HT4 receptor [2]; 5-HT approx 10^-9 M, Krebs solution with methiothepin 10^-7 M and granisetron 10^-6 M, 37° C, read-out: pIC50 (-log concentration of antagonist which reduces the contraction by 50%) (converted)) was 50.1 nM.

`CCCCN(C)CCCc1nc(-c2cn(C)c3ccccc23)no1` [Example E1, 5-[3-(N-Methylbutylamino)propyl]-3-[1-methyl-1H-indol-3-yl]-1,2,4-oxadiazole] was tested, and the “activity in guinea pig colon, in words” value (5-HT4 receptor [2]) was “particularly good activity”.

With `CCCCN1CCC(Cc2nc(-c3cn(C)c4ccccc34)no2)CC1` [Example E3] the “activity in guinea pig colon, in words” value (5-HT4 receptor [2]) was “particularly good activity”.
